Like-named read-outs stand apart in the source and are kept apart here. Each block holds one molecule with its values, some of them ahead of it.
Legend:
thymus = assay type: in vivo, mouse (NMRI); details: for Weight of the thymus: 48 h, control 98.2 ± 19.6
Method: 4-week-old male NMRI mice (sold by LATI, Godollo, Hungary) were used. […] For the control, male mice were treated by a single intraperitoneal injection of a mixture of 40 μl of DMSO and 0.5 ml of 20% ethanol. The CD2665 was also tested alone under the same conditions as before and in a quantity of 0.5 mg. The weight of the thymus was determined after 48 hours of treatment, and the results are assembled in Table 4 below.

RAR-γ = target: T1, RAR-γ (Homo sapiens, UniProt P13631); assay: Dissociation constant for RAR-γ receptors; assay type: binding
T1 sequence (P13631 1-454): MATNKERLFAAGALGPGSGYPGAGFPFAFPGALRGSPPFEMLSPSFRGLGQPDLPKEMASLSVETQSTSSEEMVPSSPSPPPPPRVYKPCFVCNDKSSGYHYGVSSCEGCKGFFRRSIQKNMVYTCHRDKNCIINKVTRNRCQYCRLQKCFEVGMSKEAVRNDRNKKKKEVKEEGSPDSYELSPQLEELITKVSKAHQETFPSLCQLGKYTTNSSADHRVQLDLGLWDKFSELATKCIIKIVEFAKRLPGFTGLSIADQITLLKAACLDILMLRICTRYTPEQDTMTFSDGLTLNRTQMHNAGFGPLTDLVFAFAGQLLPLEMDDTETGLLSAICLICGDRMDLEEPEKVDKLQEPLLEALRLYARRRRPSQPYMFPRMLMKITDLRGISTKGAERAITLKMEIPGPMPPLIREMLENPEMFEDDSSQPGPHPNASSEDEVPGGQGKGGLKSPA

RAR-α = target: T2, RAR-α (Homo sapiens, UniProt P10276); assay: Dissociation constant for RAR-α receptors; assay type: binding
T2 sequence (P10276 1-462): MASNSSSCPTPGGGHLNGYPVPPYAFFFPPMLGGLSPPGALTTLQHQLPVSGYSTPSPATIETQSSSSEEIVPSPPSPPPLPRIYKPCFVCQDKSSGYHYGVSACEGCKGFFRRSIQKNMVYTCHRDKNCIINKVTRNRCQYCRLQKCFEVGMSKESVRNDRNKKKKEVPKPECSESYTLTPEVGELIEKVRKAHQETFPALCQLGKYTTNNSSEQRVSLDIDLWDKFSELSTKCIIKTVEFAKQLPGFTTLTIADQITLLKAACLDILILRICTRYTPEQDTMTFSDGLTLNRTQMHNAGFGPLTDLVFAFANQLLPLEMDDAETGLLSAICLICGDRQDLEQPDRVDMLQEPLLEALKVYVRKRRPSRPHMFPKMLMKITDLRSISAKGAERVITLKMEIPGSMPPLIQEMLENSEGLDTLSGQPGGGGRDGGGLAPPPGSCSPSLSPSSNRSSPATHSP

thymocytes [1] = assay: Quantitative DNA fragmentation (apoptosis) in thymocytes, retinoid-induced (Example 1); assay type: cell-based, mouse (NMRI); details: for % of DNA fragments: 6 h
Method: (§1) Thymus glands from untreated 4-week old NMRI male mice (sold by LATI, Godollo, Hungary) are used as the starting material for preparing thymocyte suspensions. The medium employed is Sigma RPMI 1640 medium which is supplemented with Gibco foetal calf serum, 2 mM glutamine, 100 IU of penicillin and 100 μg of streptomycin/ml. The thymocytes are then washed and diluted, in order to obtain a final concentration of 10^7 cells/ml, before incubating them at 37° C. in a humidified incubator under an atmosphere of 5% CO2 and 95% air. The death of the cells is measured by the uptake of trypan blue.
(§2) The thymocytes are incubated in 24 wells together with various compounds to be tested. After 6 hours of incubation, 0.8 ml volumes of cell suspensions were lysed by the addition of 0.7 ml of lysis buffer containing 0.5% (v/v) Triton X-100, 10 mM Tris, 20 mM EDTA, pH 8.0, before being centrifuged at 13,000 g for 15 minutes.
(§3) Quantitative analysis of the DNA: the DNA contained in the supernatant (the fragments) and the pellet (intact chromatin) was precipitated with an equivalent quantity of 10% trichloroacetic acid, resuspended in 5% trichloroacetic acid and then quantified using the diphenylamine reagent (Burton, K. (1956) Biochem. J., 62, 315-322).
Qualitative analysis of the DNA: in parallel, the supernatant was precipitated overnight in ethanol containing […]. The pellets are redissolved in a buffer containing 10 mM Tris, 1 mM EDTA, pH 8.0, after which the solutions are treated with RNase and sequentially extracted with an equal volume of phenol and chloroform/isoamyl alcohol (24/1); the DNA is then precipitated in ethanol before electrophoresis for 3 hours at 60 V in a 1.8% agarose gel. The DNA fragments were then visualized by UV after the gel had been stained with ethidium bromide. The gels obtained display the picture of a ladder of DNA fragments which are multiples of from 180 to 200 base pairs and which are typical for an apoptosis induction. Throughout the experiments, the degree of fragmentation correlates with the number of cells which are dead and which are positive to the trypan blue test.
(§4) The percentage of DNA fragment in this table corresponds to the difference between the percentage of DNA fragment obtained in the treated thymocytes and the percentage of DNA fragment obtained in the untreated thymocytes (basal rate of apoptosis for these thymocytes).

thymocytes [2] = assay: DNA fragmentation (apoptosis) in thymocytes induced by activating a T-cell receptor with phorbol dibutyrate + Ca++ ionophore (Example 3); assay type: cell-based, mouse (NMRI); details: for % of DNA fragments: difference treated minus untreated
thymocytes [3] = assay: DNA fragmentation (apoptosis) in thymocytes induced by CD437 (Example 2); assay type: cell-based, mouse (NMRI); details: for % of DNA fragments: difference treated minus untreated
Method: as §1, §2, §3
The procedure is the same as in the preceding example, except that the nature of the ligands to be tested, and their concentration, are altered.
as §4

[4] = 0.5 mg single intraperitoneal injection, alone

- Kd (RAR-γ): 0.11 µM
- dissociation constant for RAR-γ lower than dissociation constant for RAR-α (fold) (RAR-γ; RAR-γ versus RAR-α): at least 20 times
- Kd (RAR-α): > 2.25 µM
SMILES: COCCOCOc1cc2ccc(-c3ccc(C(=O)O)cc3)cc2cc1C12CC3CC(CC(C3)C1)C2 [CD2665, 4-[7-(1-adamantyl)-6-methoxyethoxymethoxy-2-naphthyl]benzoic acid]
- Weight of the thymus (thymus; [4]): 107.6 ± 21.7 mg
- Weight of the thymus (thymus; CD2665 5 mg + CD437 0.5 mg, single intraperitoneal injection): 63.3 ± 9.1 mg
- involution of the thymus (thymus; alone, conclusion from Table 4): no significant change is observed
- involution of the thymus (thymus; combination of CD2665 and CD437, compared with CD437 alone): involution of the thymus which is much less marked than that observed with CD437 alone
- % of DNA fragments (thymocytes [1]; CD2665 200 nM + 9-cisRA 1000 nM, difference treated minus untreated): 1.5%
- % of DNA fragments (thymocytes [1]; CD2665 200 nM + ATRA 5000 nM, difference treated minus untreated): 0%
- % of DNA fragments (thymocytes [1]; CD2665 200 nM + CD437 300 nM, difference treated minus untreated): 1.0%
- % of DNA fragments (thymocytes [1]; CD2665 200 nM alone, difference treated minus untreated thymocytes): 0.5%
- inhibition of apoptosis induced by ATRA, 9-cisRA and CD437 (thymocytes [1]; conclusion from Table 1): inhibited

- dissociation constant for RAR-α lower than dissociation constant for RAR-γ (fold) (RAR-α; RAR-α versus RAR-γ): at least 20 times
SMILES: CC1(C)CCC(C)(C)c2cc(C(=O)Nc3ccc(C(=O)O)c(O)c3)ccc21 [2-hydroxy-4-(5,5,8,8-tetramethyl-5,6,7,8-tetrahydronaphthalene-2-carboxamido)benzoic acid]

SMILES: CC1(C)CCC(C)(C)c2cc(C(=O)Nc3ccc(C(=O)O)cc3)ccc21 [CD336, 4-((5,6,7,8-tetrahydro-5,5,8,8-tetramethyl-2-naphthalenyl)carboxamido)benzoic acid]
- % of DNA fragments (thymocytes [2]; (P + C) + CD336 30 nM): 9.6%
- % of DNA fragments (thymocytes [2]; (P + C) + CD336 300 nM): 8.4%
- % of DNA fragments (thymocytes [2]; (P + C) + CD336 3000 nM): 1.1%
- % of DNA fragments (thymocytes [2]; CD336 alone 30 nM): 0%
- % of DNA fragments (thymocytes [2]; CD336 alone 300 nM): 0%
- % of DNA fragments (thymocytes [2]; CD336 alone 3000 nM): 0%
- inhibition of apoptosis induced by P+C (thymocytes [2]; conclusion from Table 3): inhibited in a dose-dependent manner
- % of DNA fragments (thymocytes [3]; CD336 alone 10^-6 M): 0%
- % of DNA fragments (thymocytes [3]; CD336 alone 10^-7 M): 0%
- % of DNA fragments (thymocytes [3]; CD336 alone 10^-8 M): 0%
- % of DNA fragments (thymocytes [3]; CD437 + CD336 10^-6 M): 0%
- % of DNA fragments (thymocytes [3]; CD437 + CD336 10^-7 M): 5%
- % of DNA fragments (thymocytes [3]; CD437 + CD336 10^-8 M): 17%
- inhibition of apoptosis induced by CD437 (thymocytes [3]; conclusion from Table 2): inhibited in a dose-dependent manner

SMILES: CC1=C(/C=C/C(C)=C\C=C\C(C)=C\C(=O)O)C(C)(C)CCC1 [9-cisRA, 9-cis-retinoic acid, reference compound]
- % of DNA fragments (thymocytes [1]; 9-cisRA 1000 nM, difference treated minus untreated thymocytes): 19%

SMILES: O=C(O)c1ccc2cc(-c3ccc(O)c(C45CC6CC(CC(C6)C4)C5)c3)ccc2c1 [CD437, reference compound]
- Weight of the thymus (thymus; [4]): 31.3 ± 13.6 mg
- involution of the thymus (thymus; alone, conclusion from Table 4): involution of the thymus is observed
- % of DNA fragments (thymocytes [3]; CD437 alone 0.3 × 10^-6 M): 17%
- % of DNA fragments (thymocytes [1]; CD437 300 nM, difference treated minus untreated thymocytes): 24%

SMILES: CC1=C(/C=C/C(C)=C/C=C/C(C)=C/C(=O)O)C(C)(C)CCC1 [ATRA, all-trans retinoic acid, reference compound]
- % of DNA fragments (thymocytes [1]; ATRA 5000 nM, difference treated minus untreated thymocytes): 17%

Source: patent US6063797A, “γ-RAR antagonist ligand or α-RAR agonist ligand as an apoptosis inhibitor” (priority 1995, dated 2000)
